Data set [1] has as its system T cell lymphoma Karpas-299 cell line (harboring endogenous NPM-ALK fusion gene). As to the kind of experiment: Karpas-299 cell proliferation assay (CellTiter-Glo). It is filed as cell-based. The settings on record: Homo sapiens, 72 hours incubation, read-out: Karpas 299 cell proli. IC50.
The test system of data set [2] is Essential thrombocythemia cell line SET-2 cells (harboring endogenous JAK2 point mutation). As to the kind of experiment: SET-2 cell proliferation assay (CellTiter-Glo). The settings on record: Homo sapiens, 72 hours incubation, read-out: SET2 cell proli. IC50. Format: cell-based.
Another data set deals with JAK2 (Homo sapiens (Human), UniProt O60674). As to the kind of experiment: KINOMEscan kinase binding assay (DiscoveRx). Here is the method: (§1) For most assays, kinase-tagged T7 phage strains were prepared in an E. coli host derived from the BL21 strain. E. coli were grown to log-phase and infected with T7 phage and incubated with shaking at 32° C. until lysis. The lysates were centrifuged and filtered to remove cell debris. The remaining kinases were produced in HEK-293 cells and subsequently tagged with DNA for qPCR detection. […] The liganded beads were blocked with excess biotin and washed with blocking buffer (SeaBlock (Pierce), 1% BSA, 0.05% Tween 20, 1 mM DTT) to remove unbound ligand and to reduce nonspecific binding. […] All reactions were performed in polystyrene 96-well plates in a final volume of 0.135 mL. […] The kinase concentration in the eluates was measured by qPCR.
Chain of JAK2 (O60674 whole entry): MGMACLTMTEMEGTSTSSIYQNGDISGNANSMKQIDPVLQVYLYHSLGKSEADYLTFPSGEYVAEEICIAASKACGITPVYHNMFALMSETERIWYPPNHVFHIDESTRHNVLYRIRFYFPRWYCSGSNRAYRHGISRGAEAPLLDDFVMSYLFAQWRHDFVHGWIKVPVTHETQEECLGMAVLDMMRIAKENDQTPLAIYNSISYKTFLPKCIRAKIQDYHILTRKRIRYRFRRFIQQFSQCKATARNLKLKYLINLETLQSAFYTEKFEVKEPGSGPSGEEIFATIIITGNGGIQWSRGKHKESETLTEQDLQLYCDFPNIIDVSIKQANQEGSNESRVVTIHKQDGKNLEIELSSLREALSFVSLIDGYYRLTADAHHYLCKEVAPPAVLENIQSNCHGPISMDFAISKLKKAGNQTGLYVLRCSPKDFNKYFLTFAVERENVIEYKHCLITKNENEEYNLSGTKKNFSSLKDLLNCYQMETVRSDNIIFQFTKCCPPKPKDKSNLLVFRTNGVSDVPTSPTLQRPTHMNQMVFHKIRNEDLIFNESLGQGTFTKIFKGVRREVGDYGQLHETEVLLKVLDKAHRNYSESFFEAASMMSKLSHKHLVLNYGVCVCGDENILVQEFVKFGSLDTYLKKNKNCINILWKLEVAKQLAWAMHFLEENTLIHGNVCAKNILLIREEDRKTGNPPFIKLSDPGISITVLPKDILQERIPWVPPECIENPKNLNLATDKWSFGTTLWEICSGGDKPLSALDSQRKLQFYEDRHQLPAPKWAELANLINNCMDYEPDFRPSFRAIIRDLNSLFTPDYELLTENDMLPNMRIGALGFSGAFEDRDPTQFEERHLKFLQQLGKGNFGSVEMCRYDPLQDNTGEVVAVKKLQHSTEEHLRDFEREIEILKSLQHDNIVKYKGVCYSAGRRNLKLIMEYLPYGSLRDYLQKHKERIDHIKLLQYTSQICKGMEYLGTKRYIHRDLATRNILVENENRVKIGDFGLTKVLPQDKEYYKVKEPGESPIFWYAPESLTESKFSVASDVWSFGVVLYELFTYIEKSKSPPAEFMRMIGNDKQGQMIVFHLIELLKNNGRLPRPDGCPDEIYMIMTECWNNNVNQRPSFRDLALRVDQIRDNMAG

Data set [3] deals with Colorectal cell line KM12 (harboring endogenous TPM3-TRKA fusion gene). As to the kind of experiment: KM12 cell proliferation assay (CellTiter-Glo). It is filed as cell-based. To be noted: Homo sapiens, 72 hours incubation, read-out: KM 12 cell prolif. IC50. Here is the method:
Colorectal cell lines KM 12 (harboring endogenous TPM3-TRKA fusion gene) cells were cultured in DMEM medium, supplemented with 10% fetal bovine serum and 100 U/mL of penicillin/streptomycin. 5000 cells were seeded in 384 well white plate for 24 hours before compounds treatment. Cell proliferation was measured using CellTiter-Glo luciferase-based ATP detection assay (Promega) following the manufactures's protocol after 72 hours incubation. IC50 determinations were performed using GraphPad Prism software (GraphPad, Inc., San Diego, Calif.).
Alternatively: Colorectal cell line KM12 (harboring endogenous TPM3-TRKA fusion gene) cells were cultured in DMEM medium, supplemented with 10% fetal bovine serum and 100 U/mL of penicillin/streptomycin. […] 5000 cells were seeded in 384 well white plate for 24 hours before compounds treatment. Cell proliferation was measured using CellTiter-Glo luciferase-based ATP detection assay (Promega) following the manufactures's protocol after 72 hours incubation. IC50 determinations were performed using GraphPad Prism software (GraphPad, Inc., San Diego, Calif.).

The next data set addresses TRKA (Homo sapiens (Human), UniProt P04629). Description: KINOMEscan kinase binding assay (DiscoveRx). Here is the method:
(§2) Kinase binding assays were performed at DiscoveRx using the general KINOMEscan Kd Protocol (Fabian, M. A. et al., “A small molecule-kinase interaction map for clinical kinase inhibitors,” Nat. Biotechnol. 2005, 23(3):329-36). For most assays, kinase-tagged T7 phage strains were prepared in an E. coli host derived from the BL21 strain. E. coli were grown to log-phase and infected with T7 phage and incubated with shaking at 32° C. until lysis. The lysates were centrifuged and filtered to remove cell debris. The remaining kinases were produced in HEK-293 cells and subsequently tagged with DNA for qPCR detection. Streptavidin-coated magnetic beads were treated with biotinylated small molecule ligands for 30 minutes at room temperature to generate affinity resins for kinase assays. The liganded beads were blocked with excess biotin and washed with blocking buffer (SeaBlock (Pierce), 1% BSA, 0.05% Tween 20, 1 mM DTT) to remove unbound ligand and to reduce nonspecific binding. […] All reactions were performed in polystyrene 96-well plates in a final volume of 0.135 mL. […] The beads were then re-suspended in elution buffer (1×PBS, 0.05% Tween 20, 0.5 μM non-biotinylated affinity ligand) and incubated at room temperature with shaking for 30 minutes. The kinase concentration in the eluates was measured by qPCR.

The target in a further data set is JAK3 (Homo sapiens (Human), UniProt P52333). Description: KINOMEscan kinase binding assay (DiscoveRx). As for the experimental part:
as §2

The target in the next data set is JAK1 (Homo sapiens (Human), UniProt P23458). As to the kind of experiment: KINOMEscan kinase binding assay (DiscoveRx). Here is the method:
as §2

Data set [4] concerns Ba/F3-EML4-ALK wild type cell line. Description: EML4-ALK Ba/F3 cell proliferation assay (CellTiter-Glo). It is filed as cell-based. To be noted: 48 hours incubation. As for the experimental part:
The EML4-ALK wild-type gene (variant 1) was synthesized at GenScript and cloned into pCDH-CMV-MCS-EF1-Puro plasmid (System Biosciences, Inc). Ba/F3-EML4-ALK wild type cell line was generated by infecting Ba/F3 cells with lentivirus containing EML4-ALK wide-type. Stable cell lines were selected by puromycin treatment, followed by IL-3 withdrawal. 5000 cells were seeded in 384 well white plate overnight before compound treatment. Cell proliferation was measured using CellTiter-Glo luciferase-based ATP detection assay (Promega) following the manufactures's protocol after 48 hours of various concentration of compound incubation. IC50 determinations were performed using GraphPad Prism software (GraphPad, Inc., San Diego, Calif.).

The next data set concerns the target ALK (Homo sapiens (Human), UniProt Q9UM73). As to the kind of experiment: KINOMEscan kinase binding assay (DiscoveRx). Here is the method:
as §1

The target in the next data set is ROS1 (Homo sapiens (Human), UniProt P08922). Description: KINOMEscan kinase binding assay (DiscoveRx). As for the experimental part: as §2

Chain of TRKA (P04629 33-796): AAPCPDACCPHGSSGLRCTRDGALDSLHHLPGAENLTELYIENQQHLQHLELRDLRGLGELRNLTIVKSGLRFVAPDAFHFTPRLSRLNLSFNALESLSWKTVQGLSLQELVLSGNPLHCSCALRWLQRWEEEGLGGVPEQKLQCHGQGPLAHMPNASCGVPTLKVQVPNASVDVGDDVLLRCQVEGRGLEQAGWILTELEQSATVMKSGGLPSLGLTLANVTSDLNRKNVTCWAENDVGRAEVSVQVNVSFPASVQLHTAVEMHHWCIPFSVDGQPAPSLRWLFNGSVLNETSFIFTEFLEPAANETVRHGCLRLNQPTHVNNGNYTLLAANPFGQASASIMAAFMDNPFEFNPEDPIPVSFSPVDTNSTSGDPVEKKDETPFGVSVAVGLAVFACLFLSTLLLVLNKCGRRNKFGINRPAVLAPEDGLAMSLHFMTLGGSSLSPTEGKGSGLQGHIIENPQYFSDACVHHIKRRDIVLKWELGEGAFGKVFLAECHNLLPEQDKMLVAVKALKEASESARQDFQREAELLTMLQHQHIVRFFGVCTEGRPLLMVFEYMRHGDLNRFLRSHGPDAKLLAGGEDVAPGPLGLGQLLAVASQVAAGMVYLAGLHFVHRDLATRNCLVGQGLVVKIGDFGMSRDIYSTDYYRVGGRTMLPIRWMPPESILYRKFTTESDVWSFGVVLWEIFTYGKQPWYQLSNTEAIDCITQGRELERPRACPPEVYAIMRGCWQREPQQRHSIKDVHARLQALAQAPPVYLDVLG
Chain of JAK3 (P52333 whole entry): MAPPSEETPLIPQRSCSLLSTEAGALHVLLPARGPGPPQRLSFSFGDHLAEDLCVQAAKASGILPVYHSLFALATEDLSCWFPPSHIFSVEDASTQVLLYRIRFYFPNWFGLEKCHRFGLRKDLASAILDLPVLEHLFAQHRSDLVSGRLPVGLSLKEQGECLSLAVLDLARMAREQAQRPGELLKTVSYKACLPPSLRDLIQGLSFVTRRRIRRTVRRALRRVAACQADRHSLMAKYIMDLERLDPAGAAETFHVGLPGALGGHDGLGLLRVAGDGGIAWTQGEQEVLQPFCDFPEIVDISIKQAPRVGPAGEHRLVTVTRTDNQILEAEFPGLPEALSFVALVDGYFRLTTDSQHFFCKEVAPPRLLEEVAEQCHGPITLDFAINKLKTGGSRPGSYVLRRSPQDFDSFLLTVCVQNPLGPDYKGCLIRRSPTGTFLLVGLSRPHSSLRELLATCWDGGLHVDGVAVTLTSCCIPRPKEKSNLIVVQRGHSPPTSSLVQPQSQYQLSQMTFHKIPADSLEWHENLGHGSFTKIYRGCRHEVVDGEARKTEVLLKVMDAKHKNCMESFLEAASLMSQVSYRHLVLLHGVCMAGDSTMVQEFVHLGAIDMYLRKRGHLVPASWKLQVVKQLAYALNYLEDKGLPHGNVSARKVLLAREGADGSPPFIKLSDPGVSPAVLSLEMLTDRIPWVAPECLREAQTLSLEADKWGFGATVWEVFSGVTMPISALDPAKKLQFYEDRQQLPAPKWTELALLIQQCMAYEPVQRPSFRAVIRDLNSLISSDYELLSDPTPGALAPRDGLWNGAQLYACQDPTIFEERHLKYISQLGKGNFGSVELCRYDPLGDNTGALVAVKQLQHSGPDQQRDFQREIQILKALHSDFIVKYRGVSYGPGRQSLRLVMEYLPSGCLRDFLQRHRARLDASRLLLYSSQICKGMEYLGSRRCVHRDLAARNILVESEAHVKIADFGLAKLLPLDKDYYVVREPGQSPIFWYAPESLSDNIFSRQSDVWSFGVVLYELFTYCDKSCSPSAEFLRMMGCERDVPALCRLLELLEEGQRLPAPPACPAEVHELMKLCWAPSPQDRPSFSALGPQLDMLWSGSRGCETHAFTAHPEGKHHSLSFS
Chain of JAK1 (P23458 whole entry): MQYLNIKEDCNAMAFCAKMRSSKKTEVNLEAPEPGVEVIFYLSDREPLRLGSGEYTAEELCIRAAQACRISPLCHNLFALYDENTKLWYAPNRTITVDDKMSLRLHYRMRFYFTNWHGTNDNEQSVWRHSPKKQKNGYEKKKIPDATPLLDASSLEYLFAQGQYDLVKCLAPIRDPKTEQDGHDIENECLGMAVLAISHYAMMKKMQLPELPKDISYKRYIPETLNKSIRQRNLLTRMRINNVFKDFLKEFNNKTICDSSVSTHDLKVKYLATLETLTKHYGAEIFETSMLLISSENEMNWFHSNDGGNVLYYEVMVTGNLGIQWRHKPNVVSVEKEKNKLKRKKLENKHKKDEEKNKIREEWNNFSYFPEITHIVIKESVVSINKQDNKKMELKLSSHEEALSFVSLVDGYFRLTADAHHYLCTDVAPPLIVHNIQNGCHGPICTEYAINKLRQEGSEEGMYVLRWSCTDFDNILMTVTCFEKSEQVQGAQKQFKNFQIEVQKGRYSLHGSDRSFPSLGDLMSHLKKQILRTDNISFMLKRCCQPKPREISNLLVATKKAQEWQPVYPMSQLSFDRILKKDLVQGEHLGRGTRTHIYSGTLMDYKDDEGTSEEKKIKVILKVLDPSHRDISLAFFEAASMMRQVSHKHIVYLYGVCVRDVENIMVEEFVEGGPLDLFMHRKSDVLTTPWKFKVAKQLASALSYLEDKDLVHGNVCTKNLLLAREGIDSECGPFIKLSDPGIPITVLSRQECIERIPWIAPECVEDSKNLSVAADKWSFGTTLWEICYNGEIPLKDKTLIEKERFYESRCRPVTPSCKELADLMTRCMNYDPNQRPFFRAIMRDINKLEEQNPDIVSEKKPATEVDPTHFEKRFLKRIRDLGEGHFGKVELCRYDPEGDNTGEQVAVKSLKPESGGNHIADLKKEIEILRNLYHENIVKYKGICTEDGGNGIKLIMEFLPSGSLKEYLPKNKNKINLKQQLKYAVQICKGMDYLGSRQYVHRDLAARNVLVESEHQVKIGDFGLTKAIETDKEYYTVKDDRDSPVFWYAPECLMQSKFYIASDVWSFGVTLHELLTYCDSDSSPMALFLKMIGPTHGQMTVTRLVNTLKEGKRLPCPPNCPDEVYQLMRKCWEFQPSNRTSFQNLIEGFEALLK

Take `CC1Nc2ccn3ncc(c3n2)C(=O)NCCOc2ccc(F)cc21` (stereo not shown) [Example 51, 11-fluoro-13-methyl-6,7,13,14-tetrahydro-1,15-ethenopyrazolo[4,3-f][1,4,8,10]benzoxatriazacyclotridecin-4(5H)-one]: the figures for the 50% inhibitory concentration (IC50) in data set [1], in data set [2] and in [3] were 832 nM, 425 nM and 3.2 nM, respectively. The Kd on JAK2 amounted to 0.15 nM; on TRKA, 0.065 nM; on JAK3 it was 4.3 nM; on JAK1 it was 65 nM.
Take `C[C@@H]1CNC(=O)c2cnn3ccc(nc23)N[C@H](C)c2cc(F)ccc2O1` [Example 92, (7R,13R)-11-fluoro-7,13-dimethyl-6,7,13,14-tetrahydro-1,15-ethenopyrazolo[4,3-f][1,4,8,10]benzoxatriazacyclotridecin-4(5H)-one]: the IC50 in data set [1] came to 88.7 nM; in [2] it was 142 nM; in data set [3], 0.3 nM. The “EML4-ALK Ba/F3 cell proli. TC50” value in [4] came to 78.6 nM.
In the case of `C[C@H]1CNC(=O)c2cnn3ccc(nc23)N[C@H](C)c2cc(F)ccc2O1` [Example 93, (7S,13R)-11-fluoro-7,13-dimethyl-6,7,13,14-tetrahydro-1,15-ethenopyrazolo[4,3-f][1,4,8,10]benzoxatriazacyclotridecin-4(5H)-one], the IC50 was determined as 242 nM in data set [2] and 0.5 nM in data set [3]. In addition, in data set [4], the “EML4-ALK Ba/F3 cell proli. TC50” value is given as 21.1 nM.
As for `Cc1nn2ccc3nc2c1C(=O)NCCOc1ccc(F)cc1CN3C` [Example 40, 11-fluoro-3,14-dimethyl-6,7,13,14-tetrahydro-1,15-ethenopyrazolo[4,3-f][1,4,8,10]benzoxatriazacyclotridecin-4(5H)-one], the IC50 is > 10000 nM in [1], > 10000 nM in data set [2] and 204 nM in data set [3]. For the same compound, the Kd at ALK came out at 600 nM; at ROS1 it was 410 nM.
With `O=C1NCCCOc2ccc(F)cc2CCc2ccn3ncc1c3n2` [Example 103, 12-fluoro-5,6,7,8,14,15-hexahydro-4H-1,16-ethenopyrazolo[4,3-g][1,5,9]benzoxadiazacyclotetradecin-4-one], the 50% inhibitory concentration (IC50) in data set [1] was 1960 nM; in data set [2], > 10000 nM; in [3], 15 nM. Moreover, the figures for the dissociation constant Kd on JAK2 and at ALK were 1.9 nM and 28 nM, respectively.
For `CN1Cc2c(ccc(F)c2Cl)OCCNC(=O)c2cnn3ccc1nc23` [Example 39, 12-chloro-11-fluoro-14-methyl-6,7,13,14-tetrahydro-1,15-ethenopyrazolo[4,3-f][1,4,8,10]benzoxatriazacyclotridecin-4(5H)-one], the IC50 in [1] was 3800 nM; in [2], 8800 nM; in [3], 3.8 nM. Moreover, the Kd was found to be 27 nM at JAK2, 180 nM on ALK, 4.7 nM at ROS1 and 0.23 nM at TRKA.
Take `CC1Oc2ccn3ncc(c3n2)C(=O)NCCOc2ccc(F)c(Cl)c21` (stereo not shown) [Example 11-1, 12-chloro-11-fluoro-13-methyl-6,7-dihydro-13H-1,15-ethenopyrazolo[4,3-f][1,10,4,8] benzodioxadiazacyclotridecin-4(5H)-one]: the IC50 in [1], in [2] and in data set [3] was > 10000 nM throughout. Moreover, the figures for the dissociation constant (Kd) at ALK, at ROS1 and at TRKA were > 30000 nM, 1900 nM and 1900 nM, respectively.
Turning to `CC1Nc2ccn3ncc(c3n2)C(=O)NCCOc2ccc(F)c(Cl)c21` (stereo not shown) [Example 52, 12-chloro-11-fluoro-13-methyl-6,7,13,14-tetrahydro-1,15-ethenopyrazolo[4,3-f][1,4,8,10]benzoxatriazacyclotridecin-4(5H)-one], the IC50 in data set [1] is 7800 nM; in [2] it was 3600 nM; in data set [3], 52 nM. For the same compound, the values for the dissociation constant (Kd) on ALK, on ROS1 and at TRKA were 270 nM, 62 nM and 6.5 nM, respectively.
For the compound `C[C@H]1Nc2ccn3ncc(c3n2)C(=O)NCCOc2ccc(F)cc21` [Example 51-1, (13R)-11-fluoro-13-methyl-6,7,13,14-tetrahydro-1,15-ethenopyrazolo[4,3-f][1,4,8,10]benzoxatriazacyclotridecin-4(5H)-one], the half-inhibitory concentration (IC50) in data set [1] worked out at 289 nM; in data set [2], 234 nM; in data set [3] it was 1.3 nM. Also, the Kd on JAK2 turned out to be 0.048 nM; at ALK it was 6.8 nM; on ROS1 it was 0.73 nM; on TRKA it was 0.051 nM; on JAK3, 1.8 nM; on JAK1, 37 nM. Further, the “EML4-ALK Ba/F3 cell proli. TC50” value in data set [4] came out at 248 nM.
Turning to `CC1Oc2ccc3ncc(n3n2)C(=O)NCCOc2ccc(F)cc21` (stereo not shown) [Example 41, 10-fluoro-8-methyl-15,16-dihydro-8H-3,6-ethenoimidazo[5,1-f][1,10,4,7,8]benzodioxatriazacyclotridecin-17(14H)-one], the results for the IC50 in [1], in data set [2] and in data set [3] were 3900 nM, 1500 nM and 118 nM, respectively. For the same compound, the Kd at JAK2 was 2.6 nM; at ALK, 200 nM; on TRKA, 6 nM; at JAK3, 33 nM; at JAK1 it was 280 nM.

The record behind these values is patent US10246466B2, “Diaryl macrocycles as modulators of protein kinases” (TP THERAPEUTICS, INC., priority 2014, dated 2019).
